Results reported in article PMC11873900, “Insights into the Activation Mechanism of HCA1, HCA2, and HCA3” (Journal of Medicinal Chemistry, 2025).
Where two headings read alike, the source gives them in different places. One block for each compound: values may come before it.

Legend:
HCA1 [1] = conditions: cited from earlier work
HCA1 R99A = biological target: T1, HCA1 R99A (Homo sapiens, UniProt Q9BXC0, R99A); experiment: cAMP reporter assay, HCA1 mutant R99A; format: cell-based; conditions: HCA1 R99A (Figure 2f)
T1 construct: expressed in transfected cells; host or cells: HEK293
Procedure: (§1) Human embryonic kidney 293 (HEK293) cells were maintained in Dulbecco’s modified Eagle’s medium (DMEM) containing 10% fetal bovine serum (FBS) and antibiotics (100 U/mL penicillin and 100 μg/mL streptomycin) at 37 °C, 5% CO2. Cells (1 × 10^6 per well) were seeded on 6-well plates for 15 h and transiently transfected with a transfection cocktail containing 2 μg of plasmid DNA (1 μg of the target plasmid and 1 μg of pCRE-luc) and 6 μL of X-tremeGENE HP DNA transfection reagents dissolved in 200 μL of phenol red-free OPTI MEM. After 24 h incubation, the medium containing the transfection cocktail was replaced with a serum-supplemented normal culture medium, and cells were plated at a density of approximately 40000 cells/well in white opaque 96-well microplates for an additional 24 h. After 24 h, fresh medium with varied concentrations of ligands was added to the wells, and cells were incubated for 30 min at 37 °C, 5% CO2. Then, forsklin with a final concentration of 5 μM was added to each well for 6 h. Then, all of the medium was removed and 40 μL of Bright-Glo Luciferase Assay System reagent (Promega, U.K.) was added to each well. Luminance was measured in a luminometer (TECAN Spark, CH) after 10 min incubation.

HCA1 [2] = biological target: T2, HCA1 (Homo sapiens, UniProt Q9BXC0); experiment: cAMP inhibition (CRE-luc reporter) assay, HCA1 wild type; format: cell-based; conditions: HEK293 cells, mean ± SEM (Table S2a,b)
T2 construct: expressed in transfected cells; host or cells: HEK293
Procedure: as §1

[3] = biological target: T3, HCA2(1–129)/HCA3(130-) N86^2.63Y W91^ECL1S (Homo sapiens, UniProt Q8TDS4, G173T/I156V/L176V/M167L/M317I/M346I/N86Y/P168L/Q187R/R142W/R253H/S178I/W91S); experiment: IP1 accumulation assay, chimera HCA2(1–129)/HCA3(130-) with N86Y and W91S; format: cell-based; conditions: HCA2(1–129)/HCA3(130-) with N86Y and W91S (Figure 3d)
T3 construct: swap the amino acid segments 1–129 between HCA2 and HCA3; creating chimeras HCA2(1–129)/HCA3(130-) and HCA3(1–129)/HCA2(130-); expressed in transfected cells; host or cells: HEK293

HCA3(1–129)/HCA2(130-) = biological target: T4, HCA3(1–129)/HCA2(130-) (Homo sapiens, UniProt P49019, H253R/I178S/I317M/I346M/L167M/L168P/R187Q/T173G/V156I/V176L/W142R); experiment: IP1 accumulation assay, chimera HCA3(1–129)/HCA2(130-); format: cell-based; conditions: IP1 accumulation (Figure 3d)
T4 construct: swap the amino acid segments 1–129 between HCA2 and HCA3; creating chimeras HCA2(1–129)/HCA3(130-) and HCA3(1–129)/HCA2(130-); expressed in transfected cells; host or cells: HEK293

[4] = biological target: T5, HCA3(1–129)/HCA2(130-) S178^45.51I (Homo sapiens, UniProt Q8TDS4, L107F/L83V/M103V/N86Y/S178I/V27A/W91S); experiment: IP1 accumulation assay, chimera HCA3(1–129)/HCA2(130-) with S178I; format: cell-based; conditions: HCA3(1–129)/HCA2(130-) with mutation S178I (Figure 3d)
T5 construct: swap the amino acid segments 1–129 between HCA2 and HCA3; creating chimeras HCA2(1–129)/HCA3(130-) and HCA3(1–129)/HCA2(130-); expressed in transfected cells; host or cells: HEK293

HCA2(1–129)/HCA3(130-) = biological target: T6, HCA2(1–129)/HCA3(130-) (Homo sapiens, UniProt Q8TDS4, G173T/I156V/L176V/M167L/M317I/M346I/P168L/Q187R/R142W/R253H/S178I); experiment: IP1 accumulation assay, chimera HCA2(1–129)/HCA3(130-); format: cell-based; conditions: IP1 accumulation (Figure 3d)
T6 construct: swap the amino acid segments 1–129 between HCA2 and HCA3; creating chimeras HCA2(1–129)/HCA3(130-) and HCA3(1–129)/HCA2(130-); expressed in transfected cells; host or cells: HEK293
Procedure: The HCA1/HCA2/HCA3 plasmid was transfected into the HEK293 cells (Invitrogen) and cultured for 2 days. The HEK293 cells expressing HCA1/HCA2/HCA3 were washed by PBS and resuspended by the stimulation buffer from a Cisbio Bioassays’ IP-One Gq kit. […] After incubation at 37 °C for 90 min, 3μl Tb Cryptate Antibody and 3μl IP1 d2 Reagent were added to 384-well plates per well. […] The data was analyzed by GraphPad Prism 8.4.0 (GraphPad Software).

HCA1 R240^6.55A = biological target: T7, HCA1 R240^6.55A (Homo sapiens, UniProt Q9BXC0, R240A); experiment: cAMP reporter assay, HCA1 mutant R240A; format: cell-based; conditions: HCA1 R240A versus wild type (Figure 2f)
T7 construct: expressed in transfected cells; host or cells: HEK293
Procedure: as §1

HCA1 E166^45.51A = biological target: T8, HCA1 E166^45.51A (Homo sapiens, UniProt Q9BXC0, E166A); experiment: cAMP reporter assay, HCA1 mutant E166A; format: cell-based; conditions: HCA1 E166A (Figure 2f)
T8 construct: expressed in transfected cells; host or cells: HEK293
Procedure: as §1

HCA1 E166^45.51I = biological target: T9, HCA1 E166^45.51I (Homo sapiens, UniProt Q9BXC0, E166I); experiment: cAMP reporter assay, HCA1 mutant E166I; format: cell-based; conditions: HCA1 E166I (Figure 2f)
T9 construct: expressed in transfected cells; host or cells: HEK293
Procedure: as §1

HCA1 H261^7.36F = biological target: T10, HCA1 H261^7.36F (Homo sapiens, UniProt Q9BXC0, H261F); experiment: cAMP reporter assay, HCA1 mutant H261F; format: cell-based; conditions: HCA1 H261F (Figure 2f)
T10 construct: expressed in transfected cells; host or cells: HEK293
Procedure: as §1

T2 sequence (Q9BXC0 whole entry): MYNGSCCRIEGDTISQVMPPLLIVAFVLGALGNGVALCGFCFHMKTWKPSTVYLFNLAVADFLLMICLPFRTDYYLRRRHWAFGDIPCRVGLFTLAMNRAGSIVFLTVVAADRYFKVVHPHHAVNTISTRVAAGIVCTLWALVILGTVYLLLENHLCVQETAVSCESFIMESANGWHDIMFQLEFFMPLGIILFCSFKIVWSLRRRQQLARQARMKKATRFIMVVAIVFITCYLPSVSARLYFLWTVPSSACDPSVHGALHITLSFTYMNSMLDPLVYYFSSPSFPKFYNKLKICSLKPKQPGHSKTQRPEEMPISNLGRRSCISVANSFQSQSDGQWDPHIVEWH
T1 sequence (Q9BXC0 whole entry R99A): as the sequence (Q9BXC0 whole entry) above, with R99A counted along it
T7 sequence (Q9BXC0 whole entry R240A): as the sequence (Q9BXC0 whole entry) above, with R240A counted along it
T8 sequence (Q9BXC0 whole entry E166A): as the sequence (Q9BXC0 whole entry) above, with E166A counted along it
T6 sequence (Q8TDS4 with tags, fused parts or gaps with the stated changes): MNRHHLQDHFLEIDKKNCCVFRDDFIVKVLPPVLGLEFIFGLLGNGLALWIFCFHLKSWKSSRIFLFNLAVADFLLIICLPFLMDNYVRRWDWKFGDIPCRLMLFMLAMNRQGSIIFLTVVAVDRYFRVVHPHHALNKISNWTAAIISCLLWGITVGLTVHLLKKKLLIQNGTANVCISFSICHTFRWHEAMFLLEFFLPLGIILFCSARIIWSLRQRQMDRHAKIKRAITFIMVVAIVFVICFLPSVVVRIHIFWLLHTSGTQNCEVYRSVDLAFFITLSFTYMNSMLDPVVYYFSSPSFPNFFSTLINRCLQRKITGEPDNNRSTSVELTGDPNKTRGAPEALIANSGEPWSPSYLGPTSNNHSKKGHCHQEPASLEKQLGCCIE
T3 sequence (Q8TDS4 with tags, fused parts or gaps with the stated changes): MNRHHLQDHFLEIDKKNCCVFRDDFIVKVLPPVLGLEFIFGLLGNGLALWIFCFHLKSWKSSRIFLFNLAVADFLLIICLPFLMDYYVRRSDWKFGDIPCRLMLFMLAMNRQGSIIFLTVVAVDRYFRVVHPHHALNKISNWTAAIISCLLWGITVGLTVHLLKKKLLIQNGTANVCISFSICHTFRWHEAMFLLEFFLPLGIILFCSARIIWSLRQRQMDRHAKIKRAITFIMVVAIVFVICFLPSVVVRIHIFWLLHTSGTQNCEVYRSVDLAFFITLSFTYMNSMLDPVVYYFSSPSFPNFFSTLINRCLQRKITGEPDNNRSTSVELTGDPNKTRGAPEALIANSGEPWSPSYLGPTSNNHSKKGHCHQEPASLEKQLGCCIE
T9 sequence (Q9BXC0 whole entry E166I): as the sequence (Q9BXC0 whole entry) above, with E166I counted along it
T5 sequence (Q8TDS4 whole entry V27A/L83V/N86Y/W91S/M103V/L107F/S178I): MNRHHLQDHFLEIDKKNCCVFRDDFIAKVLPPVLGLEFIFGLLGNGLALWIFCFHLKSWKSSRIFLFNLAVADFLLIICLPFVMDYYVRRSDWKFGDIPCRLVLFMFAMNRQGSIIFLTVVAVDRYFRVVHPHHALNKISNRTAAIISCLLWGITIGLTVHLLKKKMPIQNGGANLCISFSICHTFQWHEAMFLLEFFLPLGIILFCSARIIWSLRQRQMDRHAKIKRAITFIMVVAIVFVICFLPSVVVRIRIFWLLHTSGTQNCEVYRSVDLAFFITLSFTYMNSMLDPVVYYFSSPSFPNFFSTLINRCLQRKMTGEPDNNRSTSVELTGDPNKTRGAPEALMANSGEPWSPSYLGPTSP
T10 sequence (Q9BXC0 whole entry H261F): as the sequence (Q9BXC0 whole entry) above, with H261F counted along it
T4 sequence (P49019 with tags, fused parts or gaps with the stated changes): as the sequence (Q8TDS4 whole entry V27A/L83V/N86Y/W91S/M103V/L107F/S178I) above, with I178S counted along it

potency at mutant (HCA1 R99A): complete loss of potency
pEC50 (HCA1 [2]): 3.2 ± 0.3
Compound: CC(O)C(=O)O (stereo not drawn) [lactate]
EC50 (HCA1 [1]; HCA1, endogenous agonist): 1000 to 5000 µM

activation of chimera [3]: did not facilitate activation
activation of chimera (HCA3(1–129)/HCA2(130-)): capable of activating
activation of chimera [4]: highest potency
activation of chimera (HCA2(1–129)/HCA3(130-)): failed to activate
Compound: CCCCCC(O)CC(=O)O (stereo not drawn) [3-HO, 3-hydroxy-octanoic acid]

The next lines start with the compound.

Compound: 3-hydroxybutyric acid [3-HBA]
EC50 (HCA1 [1]; HCA1): ~184 µM

Compound: O=C(O)c1cc(O)cc(O)c1 [3,5-DHBA, 3,5-dihydroxybenzoic acid]
reduction of activation efficacy (HCA1 R240^6.55A): around 50%
receptor activation (HCA1 E166^45.51A): inactivity
potency at mutant (HCA1 R99A): complete loss of potency
pEC50 (HCA1 [2]): 3.7 ± 0.1
activation efficacy compared with the wild type (HCA1 E166^45.51I): halving of the activation efficacy
efficacy compared with H261A (HCA1 H261^7.36F): marked decrease of efficacy

Compound: CCOc1cc(Cl)c(C(=O)NC(=O)Nc2nc3ccc(CN4CCN(C)CC4)cc3s2)cc1N1CCOCC1 [AZ2, 2-chloro-4-ethoxy-N-[[6-[(4-methylpiperazin-1-yl)methyl]-1,3-benzothiazol-2-yl]carbamoyl]-5-morpholino-benzamide]
EC50 (HCA1 [1]; HCA1): 0.07 to 0.18 µM
